Measurements published in patent US5849735A, “Tricyclic benzazepine vasopressin antagonists” (American Cyanamid Company, priority 1995, dated 1998).

Legend:
vasopressin V2 = assay: Vasopressin V2 Antagonist Activity in Conscious Hydrated Rats; assay type: in vivo, rat; settings: oral 10 mg/kg, N=2, AVP challenge
Description: Vasopressin V2 Antagonist Activity in Conscious Hydrated Rats Conscious hydrated rats are treated with compounds under study from 0.1 to 100 mg/kg orally or vehicle. Two to four rats are used for each compound. One hour later, arginine vasopressin (AVP, antidiuretic Hormone, ADH) dissolved in peanut oil is administered at […] intraperitoneally. Two rats in each test would not receive arginine vasopressin but only the vehicle (peanut oil) to serve as water-loading control. Twenty minutes later each rat is given 30 mL/kg of deionized water orally by gavage and is placed individually in a metabolic cage equipped with a funnel and a graduated glass cylinder to collect urine for four hours. Urine volume is measure and osmolality analyzed by use of a Fiske One-Ten osmometer (Fiske Assoc., Norwood, Mass., USA). Urinary sodium, potassium, and chloride are analyzed by use of ion-specific electrodes in a Beckman E3 (Electrolye 3) Analyzer. In the following results, […] and decreased osmolality relative to AVP-control indicates activity.

[1] = target: T1, oxytocin receptor (rat uteri) (Rattus norvegicus, UniProt P70536); assay: Oxytocin Receptor Binding; design: species or system rat (Sprague-Dawley); settings: for IC50: [3H]oxytocin displacement
T1 construct: The uteri are dissected out, cleaned of fat and connective tissues; from tissue; host or cells: uteri of diethylstilbestrol-treated female Sprague-Dawley rats
T1 sequence (P70536 1-388): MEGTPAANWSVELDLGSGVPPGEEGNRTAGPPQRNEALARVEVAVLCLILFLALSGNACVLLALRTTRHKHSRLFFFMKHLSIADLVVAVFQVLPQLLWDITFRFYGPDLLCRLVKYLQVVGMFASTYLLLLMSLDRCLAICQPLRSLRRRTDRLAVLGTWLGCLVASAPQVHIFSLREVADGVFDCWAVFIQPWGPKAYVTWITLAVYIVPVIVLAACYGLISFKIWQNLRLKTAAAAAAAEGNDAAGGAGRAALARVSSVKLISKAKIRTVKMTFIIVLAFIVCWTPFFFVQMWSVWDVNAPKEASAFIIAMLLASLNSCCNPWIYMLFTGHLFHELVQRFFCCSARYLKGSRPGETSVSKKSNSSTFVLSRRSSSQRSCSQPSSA
Description: Oxytocin Receptor Binding
Female Sprague-Dawley rats weighing approximately 200-250 g are injected intramuscularly (i.m.) with 0.3 mg/kg of body weight of diethylstilbestrol (DES). The rats are sacrificed 18 hours later under pentobarbital anesthesia. The uteri are dissected out, cleaned of fat and connective tissues and rinsed in 50 ml of normal saline. The tissue pooled from six rats is homogenized in 50 ml of […] Tris. HCl, containing 0.5 mM dithiothreitol and 1.0 mM EDTA, adjusted to pH 7.4, using a polytron at setting 6 with three passes of 10 sec each. The homogenate is passed through two (2) layers of cheesecloth and the filtrate centrifuged at 1000×g for 10 minutes. The clear supernatant is removed and recentrifuged at 165,000×g for 30 minutes. The resulting pellet containing the oxytocin receptors is resuspended in 50.0 mM Tris.HCl containing 5.0 mM MgCl2 at pH 7.4, to give a protein concentration of 2.5 mg/ml of tissue suspension. This preparation is used in subsequent binding assays with [^3 H]oxytocin.
Binding of 3,5-[^3 H]Oxytocin ([^3 H]OT) to its receptors is done in microtiter plates using [^3 H]OT, at various concentrations, in an assay buffer of 50.0 mM Tris.HCI, pH 7.4 and containing 5.0 mM MgCl2, and a mixture of protease inhibitors: BSA, 0.1 mg; aprotinin, 1.0 mg; 1,10-phenanthroline, 2.0 mg; […], 10.0 mg; and PMSF, 0.3 mg per 100 ml of buffer solution. Non-specific binding is determined in the presence of 1.0 uM unlabeled OT. The binding reaction is terminated after 60 minutes, at 22° C., by rapid filtration through glass fiber filters using a Brandel® cell harvester (Biomedical Research and Development Laboratories, Inc., Gaithersburg, Md.). Competition experiments are conducted at equilibrium using 1.0 nM [^3 H]OT and varying the concentration of the displacing agents. The concentrations of agent displacing 50% of [^3 H]OT at its sites (IC50) are calculated by a computer assisted LUNDON-2 program (LUNDON SOFTWARE INC., Ohio, USA).

[2] = target: T2, vasopressin V1 receptor (rat liver plasma membranes) (Rattus norvegicus, UniProt P30560); assay: Binding Assay to Rat Hepatic V1 Receptors
T2 construct: Rat liver plasma membranes expressing the vasopressin V1 receptor subtypes; from tissue; host or cells: rat liver plasma membranes
T2 sequence (P30560 whole entry): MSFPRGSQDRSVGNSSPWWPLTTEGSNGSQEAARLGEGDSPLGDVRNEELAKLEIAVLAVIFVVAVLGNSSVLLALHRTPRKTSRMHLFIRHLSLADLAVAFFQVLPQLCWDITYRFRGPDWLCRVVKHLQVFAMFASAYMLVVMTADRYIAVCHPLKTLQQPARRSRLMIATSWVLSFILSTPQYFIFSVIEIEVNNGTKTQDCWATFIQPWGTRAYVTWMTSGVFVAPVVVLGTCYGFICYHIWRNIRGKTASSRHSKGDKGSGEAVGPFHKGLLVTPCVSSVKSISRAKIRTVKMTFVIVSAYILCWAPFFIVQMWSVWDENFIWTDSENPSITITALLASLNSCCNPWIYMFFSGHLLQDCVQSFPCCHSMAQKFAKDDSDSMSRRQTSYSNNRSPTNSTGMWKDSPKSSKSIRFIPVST
Description: Binding Assay to Rat Hepatic V1 Receptors
Rat liver plasma membranes expressing the vasopressin V1 receptor subtypes are isolated by sucrose density gradient according to the method described by Lesko et al., (1973). These membranes are quickly suspended in 50.0 mM Tris.HCl buffer, pH 7.4, containing 0.2% bovine serum albumin (BSA) and 0.1 mM phenylmethylsulfonylfluoride (PMSF) and kept frozen at -70° C. until used in subsequent binding experiments. For binding experiments, the following is added to the wells of a ninety-six well format microtiter plate: […] of […] buffer containing 10.0 mM MgCl2, 0.2% heat inactivated BSA and a mixture of protease inhibitors: leupeptin, 1.0 mg %; aprotinin, 1.0 mg %; 1,10-phenanthroline,2.0 mg %; trypsin inhibitor, 10.0 mg % and 0.1 mM PMSF, 20.0 ml of [phenylalanyl-3,4,5, -^3 H] vasopressin (S.A. 45.1 Ci/mmole) […], and the reaction initiated by the addition of 80 ml of tissue membranes containing 20 mg of tissue protein. The plates are kept undisturbed on the bench top at room temperature for 120 min. to reach equilibrium. Non-specific samples are assayed in the presence of 0.1 mM of the unlabeled […] phenylalanylvasopressin, added in 20.0 ml volume.
For test compounds, these are solubilized in 50% dimethylsulfoxide (DMSO) and added in 20.0 ml volume to a final incubation volume of […]. Upon completion of binding, the content of each well is filtered off, using a Brandel® cell Harvester (Gaithersburg, Md.). The radioactivity trapped on the filter disk by the ligand-receptor complex is assessed by liquid scintillation counting in a Packard LS Counter, with an efficiency of 65% for tritium.

Row | Structure (SMILES) | IC50 [1] [nM] | inhibition at 10 µM [1] [%] | inhibition at 10 µM ([2]; 2 h, rat hepatic V1) [%] | inhibition at 1 µM [1] [%] | inhibition at 1 µM ([2]; 2 h, rat hepatic V1, at 1 μM) [%] | IC50 ([2]; rat hepatic V1 receptors) [nM] | Osmolality (vasopressin V2) [MOsm/kg] | Urine Volume (vasopressin V2) [ml/4 hrs]
1 | CCCCOc1ccc(C(=O)N2Cc3ccccc3Cc3ccccc32)cc1 [Example 24] | 1800 | 97 | – | – | – | – | 1492 | 4.3
2 | Cc1ccc(F)cc1C(=O)Nc1ccc(C(=O)N2Cc3ccccc3Oc3ncccc32)cn1 [Example 4, N-[5-(Pyrido[2,3-b][1,4]benzoxazepin-5(6H)-ylcarbonyl)-2-pyridinyl]-5-fluoro-2-methylbenzamide] | – | 20 | 44 | – | – | – | 878 | 6.8
3 | O=C(c1ccc(-c2ccccc2)cc1)N1Cc2sccc2Cc2ccccc21 [Example 27, 9-([1,1'-Biphenyl]-4-ylcarbonyl)-9,10-dihydro-4H-thieno[2,3-c][1]benzazepine] | – | – | – | 83 | – | – | 1317 | 3.3
4 | Cc1ccc(F)cc1C(=O)Nc1ccc(C(=O)N2Cc3ccccc3CCc3ccccc32)cn1 [Example 45] | – | – | 34 | 54 | – | – | 979 | 6.6
5 | Cc1ccc(F)cc1C(=O)Nc1ccc(C(=O)N2Cc3sccc3Cc3ccccc32)cn1 [Example 2, N-[5-[(9,10-Dihydro-4H-thieno[2,3-c][1]benzazepin-9-yl)carbonyl]-2-pyridinyl]-5-fluoro-2-methylbenzamide] | 1100 | 86 | – | – | – | 59 | 591 | 16.5

Further lines, with some results ahead:

Row | IC50 [1] [nM] | inhibition at 10 µM [1] [%] | inhibition at 10 µM ([2]; 2 h, rat hepatic V1) [%] | inhibition at 1 µM [1] [%] | inhibition at 1 µM ([2]; 2 h, rat hepatic V1, at 1 μM) [%] | IC50 ([2]; rat hepatic V1 receptors) [nM] | Structure (SMILES) | Osmolality (vasopressin V2) [MOsm/kg] | Urine Volume (vasopressin V2) [ml/4 hrs]
6 | 2500 | 73 | – | – | 46 | – | O=C(c1ccc(-c2ccccc2)cc1)N1Cc2ccccc2Oc2ccccc21 [Example 26, 10-([1,1'-Biphenyl]-4-ylcarbonyl)-10,11-dihydrodibenz[b,f][1,4]oxazepine] | 1058 | 4.5
7 | 1800 | 88 | 53 | – | – | – | O=C(c1ccccc1)c1ccc(C(=O)N2Cc3ccccc3Oc3ccccc32)cc1 [Example 32, 10-(4-Benzoylbenzoyl)-10,11-dihydrodibenz[b,f][1,4]oxazepine] | 726 | 9.3
